Source: ChEMBL document CHEMBL2203242, “A regio- and stereoselective 1,3-dipolar cycloaddition for the synthesis of new-fangled dispiropyrrolothiazoles as antimycobacterial agents” (Bioorg Med Chem Lett, 2012)
≈ marks a conversion by molar mass, not a printed value.

system: Mycobacterium tuberculosis; assay: Antimycobacterial activity against isoniazid-resistant Mycobacterium tuberculosis by agar dilution method; format: functional

`COc1cc2c(cc1OC)C(=O)[C@]1(C2)[C@@H](c2ccccc2)[C@@H]2CSCN2[C@@]12C(=O)N(N1CCOCC1)c1ccccc12` and `COc1cc2c(cc1OC)C(=O)[C@]1(C2)[C@@H](c2ccccc2Cl)[C@@H]2CSCN2[C@@]12C(=O)N(N1CCOCC1)c1ccccc12` cannot be ordered by MIC90: > 6.25 µM for the first, 18.3 µM (≈ 11.3 µg/mL) for the second.

`COc1cc2c(cc1OC)C(=O)[C@]1(C2)[C@@H](c2ccccc2)[C@@H]2CSCN2[C@@]12C(=O)Nc1ccc(OC(F)(F)F)cc12` and `COc1cc2c(cc1OC)C(=O)[C@]1(C2)[C@@H](c2ccccc2Cl)[C@@H]2CSCN2[C@@]12C(=O)Nc1ccc(OC(F)(F)F)cc12` cannot be ordered by MIC90: > 6.25 µM for the first, 36.4 µM (≈ 22.5 µg/mL) for the second.

`COc1cc2c(cc1OC)C(=O)[C@]1(C2)[C@@H](c2ccc(F)cc2)[C@@H]2CSCN2[C@@]12C(=O)N(N1CCOCC1)c1ccccc12` and `COc1ccc([C@H]2[C@@H]3CSCN3[C@@]3(C(=O)N(N4CCOCC4)c4ccccc43)[C@@]23Cc2cc(OC)c(OC)cc2C3=O)cc1OC` are within 1.5-fold of each other in MIC90: 35.1 µM (≈ 21.1 µg/mL) for the first, 24.2 µM (≈ 15.6 µg/mL) for the second.

`COc1cc2c(cc1OC)C(=O)[C@]1(C2)[C@@H](c2ccc(F)cc2)[C@@H]2CSCN2[C@@]12C(=O)Nc1ccc(OC(F)(F)F)cc12` and `COc1ccc([C@H]2[C@@H]3CSCN3[C@@]3(C(=O)Nc4ccc(OC(F)(F)F)cc43)[C@@]23Cc2cc(OC)c(OC)cc2C3=O)cc1OC` are within 1.5-fold of each other in MIC90: 16.6 µM (≈ 9.99 µg/mL) for the first, 22.2 µM (≈ 14.3 µg/mL) for the second.

With `NNC(=O)c1ccncc1` [ISONIAZID] the MIC90 was 11.2 µM (≈ 1.54 µg/mL).
